Data on six molecules can be found in patent US11166926B2 (priority 2018, dated 2021).

Data set [1] concerns the target T1, TcdB (Clostridioides difficile, UniProt P18177). Nature of the data set: cell-based. The arrangement: species or system C. difficile. Particulars: for inhibition at 40 µM: IMR-90, read-out: inhibition of TcdB-induced cell rounding.
Target sequence in this assay (P18177 2-2366 limits assumed): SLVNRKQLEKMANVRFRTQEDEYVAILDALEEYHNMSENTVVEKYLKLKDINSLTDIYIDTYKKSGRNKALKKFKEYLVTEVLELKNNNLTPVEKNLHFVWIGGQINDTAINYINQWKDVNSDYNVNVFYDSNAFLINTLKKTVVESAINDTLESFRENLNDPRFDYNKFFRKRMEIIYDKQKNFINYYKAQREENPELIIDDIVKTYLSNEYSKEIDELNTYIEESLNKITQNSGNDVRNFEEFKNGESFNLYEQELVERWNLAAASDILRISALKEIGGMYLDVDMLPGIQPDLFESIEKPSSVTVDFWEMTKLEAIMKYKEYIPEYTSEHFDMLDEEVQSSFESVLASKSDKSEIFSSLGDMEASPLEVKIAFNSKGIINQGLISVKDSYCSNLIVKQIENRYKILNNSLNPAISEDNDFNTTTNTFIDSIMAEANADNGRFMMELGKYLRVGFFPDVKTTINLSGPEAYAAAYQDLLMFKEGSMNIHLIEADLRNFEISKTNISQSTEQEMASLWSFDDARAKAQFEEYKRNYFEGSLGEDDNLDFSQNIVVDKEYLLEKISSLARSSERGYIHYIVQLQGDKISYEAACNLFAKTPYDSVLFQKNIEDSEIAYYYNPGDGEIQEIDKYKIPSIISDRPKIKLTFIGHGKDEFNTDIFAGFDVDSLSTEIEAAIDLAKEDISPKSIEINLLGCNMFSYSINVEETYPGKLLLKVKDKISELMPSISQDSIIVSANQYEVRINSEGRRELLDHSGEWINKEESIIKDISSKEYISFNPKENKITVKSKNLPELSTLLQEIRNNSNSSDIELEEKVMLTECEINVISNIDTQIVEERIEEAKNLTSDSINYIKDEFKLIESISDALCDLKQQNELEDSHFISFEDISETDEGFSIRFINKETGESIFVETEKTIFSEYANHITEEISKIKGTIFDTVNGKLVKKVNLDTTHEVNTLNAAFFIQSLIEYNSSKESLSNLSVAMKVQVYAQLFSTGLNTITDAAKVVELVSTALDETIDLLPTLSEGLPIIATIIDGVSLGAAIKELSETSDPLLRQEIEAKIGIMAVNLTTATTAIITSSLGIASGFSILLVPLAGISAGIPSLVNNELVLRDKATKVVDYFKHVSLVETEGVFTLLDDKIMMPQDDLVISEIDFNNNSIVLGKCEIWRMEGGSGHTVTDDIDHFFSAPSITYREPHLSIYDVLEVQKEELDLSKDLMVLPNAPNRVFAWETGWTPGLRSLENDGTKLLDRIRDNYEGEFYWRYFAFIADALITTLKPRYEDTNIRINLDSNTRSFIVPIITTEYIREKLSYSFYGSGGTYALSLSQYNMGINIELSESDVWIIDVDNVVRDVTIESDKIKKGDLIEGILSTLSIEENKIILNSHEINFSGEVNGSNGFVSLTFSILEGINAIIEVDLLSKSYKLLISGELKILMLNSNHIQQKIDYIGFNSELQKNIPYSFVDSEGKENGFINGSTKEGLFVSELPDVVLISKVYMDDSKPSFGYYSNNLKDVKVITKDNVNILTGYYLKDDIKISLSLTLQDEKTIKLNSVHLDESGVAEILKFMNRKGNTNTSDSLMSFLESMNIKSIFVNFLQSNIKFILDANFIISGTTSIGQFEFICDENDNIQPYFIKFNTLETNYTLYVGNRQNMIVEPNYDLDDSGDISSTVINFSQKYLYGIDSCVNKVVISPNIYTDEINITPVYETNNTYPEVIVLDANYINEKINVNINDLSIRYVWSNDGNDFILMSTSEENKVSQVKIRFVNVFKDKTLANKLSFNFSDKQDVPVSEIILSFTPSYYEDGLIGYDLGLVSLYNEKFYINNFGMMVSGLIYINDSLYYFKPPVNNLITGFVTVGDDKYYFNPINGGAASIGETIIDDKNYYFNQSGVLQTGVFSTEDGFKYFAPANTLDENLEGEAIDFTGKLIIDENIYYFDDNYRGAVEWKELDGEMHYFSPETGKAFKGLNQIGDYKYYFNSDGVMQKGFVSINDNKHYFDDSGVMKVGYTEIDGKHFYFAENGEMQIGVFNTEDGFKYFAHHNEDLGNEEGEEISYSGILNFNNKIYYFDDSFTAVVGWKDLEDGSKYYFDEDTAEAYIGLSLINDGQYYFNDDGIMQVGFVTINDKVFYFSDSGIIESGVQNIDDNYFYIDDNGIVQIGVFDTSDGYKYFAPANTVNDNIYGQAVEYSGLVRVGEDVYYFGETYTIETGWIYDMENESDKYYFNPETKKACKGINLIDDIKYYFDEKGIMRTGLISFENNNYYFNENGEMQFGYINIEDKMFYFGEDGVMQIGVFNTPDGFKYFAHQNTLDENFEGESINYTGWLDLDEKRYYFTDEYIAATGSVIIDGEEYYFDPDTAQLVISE
In another data set the target is T2, CDT (Clostridioides difficile, UniProt A0A9R0BM17+A0A9R0BM20).
T2 sequence (A0A9R0BM17 210-876): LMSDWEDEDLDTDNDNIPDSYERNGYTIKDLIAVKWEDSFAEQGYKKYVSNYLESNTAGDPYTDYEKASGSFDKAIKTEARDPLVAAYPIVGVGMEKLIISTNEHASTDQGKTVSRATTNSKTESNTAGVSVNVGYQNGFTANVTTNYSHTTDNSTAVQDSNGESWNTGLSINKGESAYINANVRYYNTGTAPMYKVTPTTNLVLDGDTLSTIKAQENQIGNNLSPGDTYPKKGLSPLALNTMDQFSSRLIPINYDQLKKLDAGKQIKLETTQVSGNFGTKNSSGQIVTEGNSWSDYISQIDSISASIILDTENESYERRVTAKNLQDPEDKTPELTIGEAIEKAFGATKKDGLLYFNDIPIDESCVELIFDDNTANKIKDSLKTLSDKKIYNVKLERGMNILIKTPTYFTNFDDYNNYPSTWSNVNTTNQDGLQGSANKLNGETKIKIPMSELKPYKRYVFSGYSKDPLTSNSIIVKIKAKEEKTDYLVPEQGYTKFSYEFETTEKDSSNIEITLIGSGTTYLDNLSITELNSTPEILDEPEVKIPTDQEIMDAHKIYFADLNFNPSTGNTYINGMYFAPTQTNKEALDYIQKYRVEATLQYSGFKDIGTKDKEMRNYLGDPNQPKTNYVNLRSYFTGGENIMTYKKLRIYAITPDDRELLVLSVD
T2 sequence (A0A9R0BM20 44-463): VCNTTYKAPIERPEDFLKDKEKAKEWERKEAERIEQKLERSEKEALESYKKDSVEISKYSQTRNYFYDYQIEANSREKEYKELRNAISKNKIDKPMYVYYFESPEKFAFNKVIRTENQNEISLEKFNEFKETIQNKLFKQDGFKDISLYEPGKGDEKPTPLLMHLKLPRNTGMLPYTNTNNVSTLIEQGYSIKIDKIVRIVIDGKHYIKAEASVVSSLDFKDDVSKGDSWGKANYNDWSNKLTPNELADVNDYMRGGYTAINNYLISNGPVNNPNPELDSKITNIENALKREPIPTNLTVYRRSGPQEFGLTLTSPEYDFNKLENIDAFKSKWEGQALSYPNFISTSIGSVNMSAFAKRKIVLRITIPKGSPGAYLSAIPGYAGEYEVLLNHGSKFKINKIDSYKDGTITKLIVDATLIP
In words: Inhibition of C. difficile toxin-induced cytotoxicity, CDT (actin depolymerization). Particulars: same doses that protect cells from TcdB.

Another data set deals with IMR90 cells. In words: Lysotracker assay, endosomal pH neutralization. It counts as cell-based, human. The conditions noted are these: pre-treating cells. The procedure:
Endosomal pH neutralization was assayed essentially as described by Slater et al. (55); IMR90 cells in complete EMEM were plated at 14,000 cells/well (˜95% confluency). After 24 h the media was changed to SFM for 60 minutes, then compound was added to 40 μM and incubated at 37° C. for 2 h. Lysotracker red DND-99 and Hoechst (Life Technologies) were added to 0.1 μM and 1 μM, respectively, and incubated for 60 minutes. Excess dye was removed by media change and the fluorescence at ex/em 574/594 was read on an Envision plate reader (Perkin Elmer). Representative cell images were taken using a Zeiss Axiovert fluorescence microscope using DAPI and Texas Red filters to visualize the Hoechst and Lysotracker staining, respectively.

Data set [2] addresses T1, TcdB.
Experimental: TcdB protein was diluted in phosphate buffer (100 mM KPO4, 150 mM NaCl, pH 7) containing 5×SYPRO Orange (Invitrogen, Burlington, ON) and a serial dilution of test compound. A Biorad CFX96 qRT-PCR thermocycler was used to establish a temperature gradient from 15° C. to 95° C. in 30 s increments, while simultaneously recording the increase in SYPRO Orange fluorescence as a consequence of binding to hydrophobic regions exposed on unfolded proteins. The Bio-Rad CFX Manager 3.1 software was used to integrate the fluorescence curves to calculate the melting point.
In data set [3] the target is T3, TcdB glucosyltransferase domain (GTD) (Clostridioides difficile, UniProt P18177).
T3 construct: The TcdB glucosyltransferase domain (GTD); made in house
Nature of the data set: In vitro GTD glucosyltransferase assay. It is filed as biochemical, C. difficile. The conditions noted are these: up to 10 μM niclosamide, n=3. As for the experimental part:
(§1) FIG. 2. […] (a) Representative Western blot image for intracellular Rac1 glucosylation. […] Cells were harvested in lysis buffer 1 h later and processed for Western blot as described in Online Methods. […] (b) In vitro GTD glucosyltransferase assay. […] Activity was measured as described in the Online Methods. (c) In vitro auto-processing assay.
For each reaction containing 10 nM GTD and 25 μM UDP-glucose, compound was added (1% final DMSO) and preincubated 30 minutes, followed by addition of gstRac1 to 0.8 μM. The reaction was stopped after a 60 min reaction time with an equal volume of Laemmli loading buffer plus β-mercaptoethanol (Bio-Rad, Mississauga. ON), heated to 90° C. before immediately loading on an SDS polyacrylamide gel. […]
Reactions were started with the simultaneous addition of 2.5 μl each of GST-Rac1 (20 μM final) and a mixture of 0.5 μCi of UDP-[6 ^3H]-glucose (0.5 μM final) and cold UDP-glucose (19.5 μM final). […] The beads were allowed to settle overnight at room temperature to increase the signal to background ratio before being analyzed on a TopCount NXT scintillation counter (PerkinElmer). Results were analyzed using GraphPad Prism 5.0.
Experiments were performed as per the manufacturer's instructions. […] Results were analyzed with SoftMax Pro 6.2.2 and GraphPad Prism 5.0.

Another data set deals with Rac1 glucosylation. In words: Intracellular Rac1 glucosylation Western blot. It is filed as cell-based, human. Particulars: IMR-90 cells, niclosamide 15 min then TcdB, harvested 1 h later. As for the experimental part:
as §1
In general terms: A western blot detects proteins with antibodies after separation by electrophoresis.

For data set [4], the target named is T1, TcdB. Particulars: mammalian cells expressing all three known receptors.
Target sequence in this assay (P18177 2-2366 limits assumed): as the sequence (P18177 2-2366 limits assumed) above
Experimental: TcdB binding to Vero cells was assessed as described earlier with minor modifications(57). […] Mixtures were then added to confluent cultures of pre-chilled Vero cells and plates were incubated on ice for 45 min. Plates were then washed 3 times with cold PBS and harvested by scraping. Membranes were isolated, and samples analyzed by Western blot as previously described (57).
The subject of a further data set is CaCo-2 cells. In words: CaCo-2 monolayer integrity / trans-epithelial resistance after TcdB. It is filed as cell-based, human.
A further data set deals with T4, TcdA (Clostridioides difficile, UniProt P16154).
T4 construct: made in house; host or cells: Bacillus megaterium (the general sentence on recombinant toxins)
T4 sequence (P16154 whole entry, looked up): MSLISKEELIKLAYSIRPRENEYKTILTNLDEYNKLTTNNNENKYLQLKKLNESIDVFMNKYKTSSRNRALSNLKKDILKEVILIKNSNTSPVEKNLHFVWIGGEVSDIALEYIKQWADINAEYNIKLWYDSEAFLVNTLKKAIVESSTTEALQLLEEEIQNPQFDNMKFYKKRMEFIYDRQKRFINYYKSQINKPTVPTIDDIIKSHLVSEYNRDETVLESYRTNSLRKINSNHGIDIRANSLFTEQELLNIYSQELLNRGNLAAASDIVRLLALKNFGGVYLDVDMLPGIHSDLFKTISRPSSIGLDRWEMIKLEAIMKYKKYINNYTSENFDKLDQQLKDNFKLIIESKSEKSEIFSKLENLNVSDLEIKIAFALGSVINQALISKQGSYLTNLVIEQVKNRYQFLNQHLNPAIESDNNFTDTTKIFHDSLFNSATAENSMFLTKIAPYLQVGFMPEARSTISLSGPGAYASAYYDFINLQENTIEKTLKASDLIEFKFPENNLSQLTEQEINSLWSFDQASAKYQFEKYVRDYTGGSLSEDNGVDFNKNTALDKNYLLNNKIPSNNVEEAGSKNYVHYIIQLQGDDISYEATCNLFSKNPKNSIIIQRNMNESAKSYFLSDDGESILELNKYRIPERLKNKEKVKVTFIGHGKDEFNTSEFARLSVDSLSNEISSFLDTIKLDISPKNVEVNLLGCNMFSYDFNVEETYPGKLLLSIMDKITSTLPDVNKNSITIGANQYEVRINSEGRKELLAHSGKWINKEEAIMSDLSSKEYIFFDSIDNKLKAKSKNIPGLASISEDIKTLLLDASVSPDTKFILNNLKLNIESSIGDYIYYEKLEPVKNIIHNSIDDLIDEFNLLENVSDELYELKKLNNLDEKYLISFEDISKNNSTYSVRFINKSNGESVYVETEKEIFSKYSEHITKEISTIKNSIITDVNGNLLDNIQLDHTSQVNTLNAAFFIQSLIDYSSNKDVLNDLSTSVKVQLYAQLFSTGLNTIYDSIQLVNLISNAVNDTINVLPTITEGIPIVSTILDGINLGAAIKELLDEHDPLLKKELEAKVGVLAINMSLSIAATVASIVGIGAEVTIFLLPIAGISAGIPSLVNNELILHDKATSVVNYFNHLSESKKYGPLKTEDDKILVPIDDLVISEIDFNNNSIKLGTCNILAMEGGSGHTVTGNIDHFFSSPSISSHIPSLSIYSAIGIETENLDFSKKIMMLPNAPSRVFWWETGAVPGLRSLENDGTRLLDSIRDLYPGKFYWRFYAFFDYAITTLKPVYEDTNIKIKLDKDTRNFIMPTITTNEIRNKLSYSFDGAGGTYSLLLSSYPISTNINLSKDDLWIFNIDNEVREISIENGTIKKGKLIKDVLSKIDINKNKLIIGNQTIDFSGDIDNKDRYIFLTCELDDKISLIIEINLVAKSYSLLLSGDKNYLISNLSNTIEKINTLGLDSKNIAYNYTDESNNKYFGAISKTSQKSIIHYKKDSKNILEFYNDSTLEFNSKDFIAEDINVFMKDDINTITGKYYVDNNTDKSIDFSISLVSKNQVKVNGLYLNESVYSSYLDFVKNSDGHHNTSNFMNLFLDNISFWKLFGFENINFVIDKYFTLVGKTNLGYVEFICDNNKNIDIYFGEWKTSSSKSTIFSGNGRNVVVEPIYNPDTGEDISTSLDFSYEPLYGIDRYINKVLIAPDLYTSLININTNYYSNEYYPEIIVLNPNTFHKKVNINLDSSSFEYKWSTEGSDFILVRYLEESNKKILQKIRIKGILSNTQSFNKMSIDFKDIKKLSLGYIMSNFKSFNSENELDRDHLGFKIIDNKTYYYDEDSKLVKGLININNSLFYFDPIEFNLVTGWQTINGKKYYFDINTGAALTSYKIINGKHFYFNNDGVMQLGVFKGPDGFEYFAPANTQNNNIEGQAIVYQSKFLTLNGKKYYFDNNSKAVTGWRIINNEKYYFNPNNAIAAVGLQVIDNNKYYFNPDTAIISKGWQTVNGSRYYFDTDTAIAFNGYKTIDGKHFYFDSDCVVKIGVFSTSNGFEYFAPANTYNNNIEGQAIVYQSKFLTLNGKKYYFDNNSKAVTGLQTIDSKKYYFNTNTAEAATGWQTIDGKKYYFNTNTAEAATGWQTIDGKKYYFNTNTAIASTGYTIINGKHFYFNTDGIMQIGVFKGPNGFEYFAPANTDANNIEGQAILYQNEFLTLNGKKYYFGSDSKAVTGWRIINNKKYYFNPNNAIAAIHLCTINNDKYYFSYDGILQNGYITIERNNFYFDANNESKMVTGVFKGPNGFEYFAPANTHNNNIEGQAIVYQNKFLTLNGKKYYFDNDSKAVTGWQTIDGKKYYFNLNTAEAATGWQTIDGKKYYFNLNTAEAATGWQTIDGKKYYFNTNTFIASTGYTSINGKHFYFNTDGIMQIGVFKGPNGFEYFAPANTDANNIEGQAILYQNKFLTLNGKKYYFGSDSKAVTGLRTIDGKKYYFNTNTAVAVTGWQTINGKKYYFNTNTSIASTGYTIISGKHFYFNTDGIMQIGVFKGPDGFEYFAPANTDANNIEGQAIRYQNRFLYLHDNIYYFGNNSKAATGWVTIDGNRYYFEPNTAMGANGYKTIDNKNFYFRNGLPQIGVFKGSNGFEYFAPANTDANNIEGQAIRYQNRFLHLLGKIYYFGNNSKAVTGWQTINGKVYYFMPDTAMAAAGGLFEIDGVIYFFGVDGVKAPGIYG
Nature of the data set: cell-based. It counts as cell-based, C. difficile. The conditions noted are these: for IC50: IC50 TcdA, means ± s.d.

The next data set deals with T5, TcdB APD domain (Clostridioides difficile, UniProt P18177).
T5 construct: Cell lysates were prepared as described for full-length TcdB; made in house; host or cells: Bacillus megaterium
In words: In vitro inositol hexakisphosphate-induced autoprocessing (cysteine protease) assay. It is filed as biochemical, C. difficile. Particulars: up to 10 μM niclosamide. From the text: Cleavage was visualized by electrophoresing the samples on SDS polyacrylamide gels and staining with Coomassie Blue R250.

For data set [5], the target named is T1, TcdB. The source holds these as a separate data set.
Target sequence in this assay (P18177 2-2366 limits assumed): as the sequence (P18177 2-2366 limits assumed) above
Experimental: Loss of cellular ATP as a marker of high dose (1 nM) TcdB toxicity was measured as described for the Arrayscan screen protocol, except that CellTiter-Glo reagent (Promega, Madison, Wis.) was added to the cells 3 h post toxin challenge, and luminescence was recorded on a Spectramax M5 plate reader.
Data set [6] has as its system C. difficile. In words: microbe, parasite or virus in culture. It is filed as cell-based.
In a further data set the test system is C. sporogenes ATCC3584. In words: microbe, parasite or virus in culture. The conditions noted are these: Clostridium sporogenes. It counts as cell-based.
The subject of data set [7] is C. difficile. It is filed as in vivo, mice.
The conditions of data set [8]: rats; cited from earlier work.
For another data set, the target named is TcdB027 (Clostridioides difficile, UniProt A0A9R0CDJ3). It counts as cell-based, C. difficile.
In data set [9] the test system is C. clostridioforme ATCC25537. In words: organism not typed. It counts as cell-based.
The test system of data set [10] is C. difficile. In words: microbe, parasite or virus in culture. It counts as cell-based. The source holds these as a separate data set.

Converted amounts (≈) assume the structure as drawn. “And” between values parts separate entries of the source, which are not always exact repeats. Equal entries are not always repeated. Where two headings read alike, the source gives them in different places.

Experimental for CDT: Cells were stained with 1 uM Hoechst for 30 min, then combined photos were taken for each compound at a concentration corresponding to maximum protection from TcdB using a 10× objective and appropriate filter sets for Hoechst and Alexa488 fluorescence (Zeiss).

A word on the inhibition: it is the drop in the measured response relative to a control, in per cent. The term IC50 denotes the concentration that inhibits the measured activity by half. Higher therefore signals weaker potency in that assay. Turning to `O=C(Nc1ccc([N+](=O)[O-])cc1Cl)c1cc(Cl)ccc1O` [niclosamide], the inhibition at 40 µM at TcdB [1] stood at 71%. Further, on TcdB [1] (human IMR-90 fibroblasts co-incubated with niclosamide and TcdB), the “Protection from TcdB-induced cell-rounding (extent)” value is recorded as “complete”. Besides, the “protection from CDT-induced damage (depolymerization of the actin cytoskeleton)” value on CDT is on record as “completely protected”. Also, the “Lysotracker fluorescent staining (endosomal pH)” value in the data set with IMR90 cells was “reduces Lysotracker fluorescent staining”. In addition, the “direct binding interaction with TcdB (thermal stability)” value on TcdB [2] is reported as “no evidence for a direct binding interaction”. In addition, in data set [3], the “inhibition of GTD enzymatic activity in vitro” value is “no direct inhibition”. Further, in the data set with Rac1 glucosylation, the “Rac1 glucosylation in cells” value was “dose-dependently inhibits”. On TcdB [4], the “TcdB binding to the cell surface” value is on record as “did not affect”. In the data set on CaCo-2 cells (Caco-2 cells), the “TcdB-induced reduction in Phalloidin staining” value was “prevented”. For the same molecule, the “TcdB-induced disruption of monolayer integrity” value in the data set with CaCo-2 cells (co-treatment with TcdB, confluent CaCo-2 monolayer) was “prevented”. For the same molecule, at TcdA, the “protection from TcdA-induced cell rounding” value is on record as “completely protected” and the IC50 was 500 ± 100 nM. In addition, on TcdB APD domain, the “Release of GTD by the APD domain (autoprocessing)” value is “unaffected”. Also, the TcdB-induced necrosis result at TcdB [5] is “inhibited”.

On to `O=C(Nc1cc(Cl)cc(Cl)c1O)c1c(O)c(Cl)cc(Cl)c1Cl` [oxyclozanide], for which the inhibition at 40 µM on TcdB [1] was 43%.

Consider `Cc1cc(C(C#N)c2ccc(Cl)cc2)c(Cl)cc1NC(=O)c1cc(I)cc(I)c1O` (stereo not shown) [closantel], for which the “inhibition of TcdB-induced cell rounding” value against TcdB [1] (high-throughput screen, libraries screened at 40 μM, IMR90 cells) was 60%.

As to `CCc1c(Cl)c(O)c(Cl)c(O)c1C(=O)O[C@H]1[C@H](O)[C@H](OC)[C@H](OC/C2=C\C=C\C[C@H](O)/C(C)=C/[C@H](CC)[C@@H](O[C@@H]3OC(C)(C)[C@@H](OC(=O)C(C)C)[C@H](O)[C@@H]3O)/C(C)=C/C(C)=C/C[C@@H]([C@@H](C)O)OC2=O)O[C@@H]1C` [Fidaxomicin], the MIC with C. difficile [6] is 0.06 μg/mL and 0.06^4 μg/mL; against C. difficile [6] (Clostridioides difficile), 0.12 µg/mL (≈ 0.113 µM).

In the case of `O=C(Nc1ccc([N+](=O)[O-])cc1Cl)c1cc(Cl)ccc1O` [NEN, niclosamide ethanolamine], the MIC (against C. sporogenes ATCC3584; in [9]) was above 19 µg/mL throughout. Moreover, the “TEER assay, dose dependence” value in the data set on CaCo-2 cells (Caco-2 cell monolayers) was “dose-dependently protects”. This molecule also displayed an IC50 against TcdA of 550 ± 80 nM. Also, in the data set with C. difficile [7] (NEN 50 mg/kg), the survival of recurrence result was “all NEN-treated mice survived recurrence”. Further, the “survival from C. difficile challenge” value in the data set with C. difficile [7] (NEN 50 mg/kg oral gavage, vancomycin 0.5 mg/mL in drinking water, more than 60% of control moribund) is “all mice in the NEN group survived”. The “diarrhea scores at recurrence” value with C. difficile [7] (mouse, in vivo) is recorded as “less severe diarrhea scores”. Further, the “median oral lethal dose (LD50)” value in data set [8] is reported as 10,000 mg/kg body weight. For the same molecule, the “protection against TcdB derived from hypervirulent strains” value on TcdB027 is listed as “protected”.

Turning to `CN[C@H](CC(C)C)C(=O)N[C@H]1C(=O)N[C@@H](CC(N)=O)C(=O)N[C@H]2C(=O)N[C@H]3C(=O)N[C@H](C(=O)N[C@H](C(=O)O)c4cc(O)cc(O)c4-c4cc3ccc4O)[C@H](O)c3ccc(c(Cl)c3)Oc3cc2cc(c3O[C@@H]2O[C@H](CO)[C@@H](O)[C@H](O)[C@H]2O[C@H]2C[C@](C)(N)[C@H](O)[C@H](C)O2)Oc2ccc(cc2Cl)[C@H]1O` [Vancomycin], the MIC against C. sporogenes ATCC3584 is 8 µg/mL (≈ 5.52 µM); against C. difficile [10], 2 µg/mL (≈ 1.38 µM); with C. difficile [10] (Clostridioides difficile), 1 µg/mL (≈ 0.69 µM); in data set [9], 4 µg/mL (≈ 2.76 µM).
